The target in this assay is T1, human vasopressin V1a receptor subtype (Homo sapiens, UniProt P37288).
T1 construct: host or cells: CHO cells (pZeoSV vector for the Thibonnier line)
Description: Vasopressin binding in Chinese Hamster Ovary cell membranes expressing human vasopressin V1a subtype receptors. Conditions: 100 nM, CHO cell membranes, [3H]Manning ligand, values without parentheses. On the procedure:
Vasopressin Binding in Chinese Hamster Ovary Cell Membranes Expressing Human Vasopressin V1a Subtype Receptors
The trypsin is removed by aspiration and the cells dislodged by tapping. Cell Culture medium (e.g. 30 mL for 1:30 split) is immediately added and mixed well to inactivate trypsin. 1 mL of detached cells is added to new culture flasks containing fresh cell culture medium (e.g., into 25 mL per T-150 flask), and mixed gently. The cells are incubated at 37° C. in 5% CO2. The medium is changed at 3 to 4 days interval (or as appropriate). […] All steps are done under sterile conditions. B. Membrane Preparation: The cells are washed twice gently with Hank's Balanced Salt solution (e.g,. use 10 mL per T-150 flask). […] The contents are transferred to centrifuge tubes (50 mL) kept in an ice bath. All subsequent steps are done at 4° C. The tubes are centrifuged at 300×g for 15 min (1380 rpm on SORVAL, Model RT6000D, using the rotor for 50 mL tubes). The supernatant is discarded and the cells suspended in homogenizing buffer(10 mM Tris-HCl containing 0.25 M sucrose and 1 mM EDTA, pH 7.4) ensuring that the volume of the buffer is about ten times the volume of the cell pellet. The cells are pooled into a centrifuge tube (50 mL) and homogenized with a Polytron at setting 6 for 10 sec. The homogenate is transferred into a Potter-Elvjehm homogenizer and homogenized with 3 strokes. The homogenate is centrifuged at 1500×g for 10 min at 4° C. (3100 rpm using SORVAL, model RT6000D, using the rotor for 50 mL tubes). The pellet is discarded. The supernatant is centrifuged at 100,000×g for 60 min. at 4° C. (Beckman L8-80M ultracentrifuge; spin at 37,500 rpm with rotor type 70 Ti for 50 mL tubes; 38,000 rpm with type 80Ti for 15 mL tubes; or 35,800 rpm with rotor type 45Ti). The supernantant is discarded and the pellet suspended in 3 to 4 mL of Tris buffer (50 mM TRIS-HCl, pH 7.4). The protein content is estimated by the Bradford or Lowry method. The volume of the membrane suspension is adjusted with the membrane buffer (50 mM Tris-HCl containing 0.1% BSA and 0.1 mM PMSF) to give 3.0 mg/mL (or as appropriate) of protein. The membranes are aliquoted and stored at −70° C. C. Radioligand Binding Assay: In wells of a 96-well format microtiter plate, is added 90, 110 or 130 μL (to make up a final volume of 200 μL) of assay buffer containing 50 mM of Tris-HCl (pH 7.4), BSA (heat inactivated, protease-free), […], 1 mg % aprotinin, 1 mg % leupeptin, 2 mg % 1,10-phenanthroline, 10 mg % trypsin inhibitor, and 0.1 mM PMSF. The inhibitors are added on the day of the experiment. The components are mixed at room temperature, and then kept in ice bath following adjustment of the pH to 7.4. […] 20 μL of 50% DMSO is added for Manning and other peptide ligands and the assay buffer volume is adjusted accordingly. To each well is added 50 μL of frozen membrane suspension thawed immediately prior to use and diluted in the assay buffer to the required concentration (equivalent to 25 to 50 μg of protein/well as needed). 20 μL of 8 nM [^3H]Manning ligand in the assay buffer, prepared just before use, is added, and incubated at room temperature for 60 min. shaking the plate on a mechanical shaker for the first 15 min. The incubation is stopped by rapid filtration of the plate contents followed by wash with ice-cold buffer (50 mM Tris-HCl, pH 7.4) using a cell harvester (Tomtek and Printed filtermat-B filter paper). The filter paper is thoroughly dried (7–12 min. in a microwave oven) and impregnated with MeltiLex B/H melt-on scintillation wax sheets and the radioactivity counted in a betaplate scintillation counter.
Binding data is either reported as percent inhibition at a certain concentration or if an IC50 was calculated, as a nanomolar concentration.

18 compounds from patent publication US7109193B2, “Tricyclic diazepines tocolytic oxytocin receptor antagonists” (Wyeth, priority 2001, dated 2006) can be followed below.

T1 sequence (P37288 whole entry): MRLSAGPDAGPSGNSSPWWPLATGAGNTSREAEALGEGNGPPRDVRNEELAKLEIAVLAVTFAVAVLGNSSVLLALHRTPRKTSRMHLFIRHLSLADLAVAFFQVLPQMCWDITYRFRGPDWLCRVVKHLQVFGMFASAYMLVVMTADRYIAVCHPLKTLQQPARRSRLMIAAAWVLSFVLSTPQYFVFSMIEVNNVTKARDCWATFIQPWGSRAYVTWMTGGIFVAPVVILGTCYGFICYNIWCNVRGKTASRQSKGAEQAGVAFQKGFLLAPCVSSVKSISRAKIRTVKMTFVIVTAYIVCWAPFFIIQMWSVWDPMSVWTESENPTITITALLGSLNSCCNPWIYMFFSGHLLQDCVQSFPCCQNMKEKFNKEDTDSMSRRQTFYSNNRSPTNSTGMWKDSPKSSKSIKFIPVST

As a reminder, the inhibition is the relative decrease from the control value, in per cent. On to `COc1ccccc1-c1ccc(C(=O)N2Cc3ccc(C(=O)NCCN4CCCCC4)n3Cc3ccccc32)cc1` [Example 152, 10-[(2′-Methoxy[1,1′-biphenyl]-4-yl)carbonyl]-N-[2-(1-piperidinyl)ethyl]-10,11-dihydro-5H-pyrrolo[2,1-c][1,4]benzodiazepine-3-carboxamide], for which the inhibition at 0.1 µM was found to be 23%. As for `COc1cccc(-c2ccc(C(=O)N3Cc4ccc(C(=O)N5CCC(N6CCCCC6)CC5)n4Cc4ccccc43)cc2OC)c1` [Example 120, {10-[(2,3′-Dimethoxy-[1,1′-biphenyl]-4-yl)carbonyl]-10,11-dihydro-5H-pyrrolo[2,1-c][1,4]benzodiazepin-3-yl}[4-(1-piperidinyl)-1-piperidinyl]methanone], the inhibition at 0.1 µM was determined as 20%. Take `COc1cccc(-c2ccc(C(=O)N3Cc4ccc(C(=O)N5CCC(N6CCCC6)CC5)n4Cc4ccccc43)cc2OC)c1` [Example 146, {10-[(2,3′-Dimethoxy[1,1′-biphenyl]-4-yl)carbonyl]-10,11-dihydro-5H-pyrrolo[2,1-c][1,4]benzodiazepin-3-yl}[4-(1-pyrrolidinyl)-1-piperidinyl]methanone]: the inhibition at 0.1 µM was 37%. In the case of `COc1cc(-c2ccccc2C)c(Cl)cc1C(=O)N1Cc2ccc(C(=O)N3CCC[C@H]3CN3CCCC3)n2Cc2ccccc21` [Example 267, {10-[(6-Chloro-3-methoxy-2′-methyl[1,1′-biphenyl]-4-yl)carbonyl]-10,11-dihydro-5H-pyrrolo[2,1-c][1,4]benzodiazepin-3-yl}[(2S)-2-(1-pyrrolidinylmethyl)pyrrolidinyl]methanone], the “V1a % inhibition @ 100 nM” value was found to be 12%. Same read-out and setting: then `COc1cccc(-c2ccc(C(=O)N3Cc4ccc(C(=O)N5CCN(CCN(C)C)CC5)n4Cc4ccccc43)cc2C)c1` [Example 199, {4-[2-(Dimethylamino)ethyl]-1-piperazinyl{}10-[(3′-methoxy-2-methyl[1,1′-biphenyl]-4-yl)carbonyl]-10,11-dihydro-5H-pyrrolo[2,1-c][1,4]benzodiazepin-3-yl}methanone], with 23%.

Take `Cc1cc(C(=O)N2Cc3ccc(C(=O)N4CCC(N5CCCC5)CC4)n3Cc3ccccc32)ccc1-c1ccccc1C(F)(F)F` [Example 148, (10-{[2-Methyl-2′-(trifluoromethyl)[1,1′-biphenyl]-4-yl]carbonyl}-10,11-dihydro-5H-pyrrolo[2,1-c][1,4]benzodiazepin-3-yl)[4-(1-pyrrolidinyl)-1-piperidinyl]methanone]: the inhibition at 0.1 µM is -9%. `COc1cc(C(=O)N2Cc3ccc(C(=O)N4CCC[C@H]4CN4CCCC4)n3Cc3ccccc32)ccc1-n1c(C)ccc1C` [Example 321, {10-[4-(2,5-Dimethyl-1H-pyrrol-1-yl)-3-methoxybenzoyl]-10,11-dihydro-5H-pyrrolo[2,1-c][1,4]benzodiazepin-3-yl}[(2S)-2-(1-pyrrolidinylmethyl)pyrrolidinyl]methanone]: the “V1a % inhibition @ 100 nM” value is recorded as 5%. Take `COc1ccccc1-c1ccc(C(=O)N2Cc3ccc(C(=O)NCCCn4ccnc4)n3Cc3ccccc32)cc1C` [Example 123, N-[3-(1H-Imidazol-1-yl)propyl]-10-[(2′-methoxy-2-methyl[1,1′-biphenyl]-4-yl)carbonyl]-10,11-dihydro-5H-pyrrolo[2,1-c][1,4]benzodiazepine-3-carboxamide]: the inhibition at 0.1 µM was 9%. For the compound `COc1cccc(-c2ccc(C(=O)N3Cc4ccc(C(=O)N(C)CCCN(C)C)n4Cc4ccccc43)cc2OC)c1` [Example 108, 10-[(2,3′-Dimethoxy[1,1′-biphenyl]-4-yl)carbonyl]-N-[3-(dimethylamino)propyl]-N-methyl-10,11-dihydro-5H-pyrrolo[2,1-c][1,4]benzodiazepine-3-carboxamide], the inhibition at 0.1 µM was found to be 52%. With `COc1cc2c(cc1OC)N(C(=O)c1ccc(-c3ccccc3C(F)(F)F)c(C)c1)Cc1ccc(C(=O)N(C)CCCN(C)C)n1C2.Cl` [Example 13, N-Methyl-[N-(3-dimethylamino)propyl]-7,8-dimethoxy-10-{[2-methyl-2′-(trifluoromethyl)[1,1′-biphenyl]-4-yl]carbonyl}-10,11-dihydro-5H-pyrrolo[2,1-c][1,4]benzodiazepine-3-carboxamide hydrochloride salt], the “V1a % inhibition @ 100 nM” value is on record as 4%.

Regarding `COc1cccc(-c2ccc(C(=O)N3Cc4ccc(C(=O)NCCC5CCCN5C)n4Cc4ccccc43)cc2C)c1` (stereo not drawn) [Example 164, 10-[(3′-Methoxy-2-methyl[1′1′-biphenyl]-4-yl)carbonyl]-N-[2-(1-methyl-2-pyrrolidinyl)ethyl]-10,11-dihydro-5H-pyrrolo[2,1-c][1,4]benzodiazepine-3-carboxamide], the “V1a % inhibition @ 100 nM” value is listed as 23%. For the compound `COc1cccc(-c2ccc(C(=O)N3Cc4ccc(C(=O)NCCCn5ccnc5)n4Cc4ccccc43)cc2C)c1` [Example 125, N-[3-(1H-Imidazol-1-yl)propyl]-10-[(3′-methoxy-2-methyl[1,1′-biphenyl]-4-yl)carbonyl]-10,11-dihydro-5H-pyrrolo[2,1-c][1,4]benzodiazepine-3-carboxamide], the inhibition at 0.1 µM amounted to 10%. For the compound `Cc1ccccc1-c1ccc(C(=O)N2Cc3ccc(C(=O)N4CC[C@@H](N(C)C)C4)n3Cc3ccccc32)cc1` [Example 280, [(3R)-3-(Dimethylamino)pyrrolidinyl]{10-[(2′-methyl[1,1′-biphenyl]-4-yl)carbonyl]-10,11-dihydro-5H-pyrrolo[2,1-c][1,4]benzodiazepin-3-yl}methanone], the “V1a % inhibition @ 100 nM” value is given as 77%. Turning to `COc1cccc(-c2cc(OC)c(C(=O)N3Cc4ccc(C(=O)N5CC[C@@H](N(C)C)C5)n4Cc4ccccc43)cc2Cl)c1` [Example 275, {10-[(6-Chloro-3,3′-dimethoxy[1,1′-biphenyl]-4-yl)carbonyl]-10,11-dihydro-5H-pyrrolo[2,1-c][1,4]benzodiazepin-3-yl}[(3R)-3-(dimethylamino)pyrrolidinyl]methanone], the “V1a % inhibition @ 100 nM” value is on record as 9%. As for `Cc1ccccc1-c1ccc(C(=O)N2Cc3ccc(C(=O)N4CCC(N5CCCCC5)CC4)n3Cc3ccccc32)cc1` [Example 115, {10-[(2′-Methyl[1,1′-biphenyl]-4-yl)carbonyl]-10,11-dihydro-5H-pyrrolo[2,1-c][1,4]benzodiazepin-3-yl}[4-(1-piperidinyl)-1-piperidinyl]methanone], the inhibition at 0.1 µM came out at 11%.

For `COc1ccccc1-c1ccc(C(=O)N2Cc3ccc(C(=O)N4CCC(N5CCCC5)CC4)n3Cc3ccccc32)cc1C` [Example 137, {10-[(2′-Methoxy-2-methyl[1,1′-biphenyl]-4-yl)carbonyl]-10,11-dihydro-5H-pyrrolo[2,1-c][1,4]benzodiazepin-3-yl}[4-(1-pyrrolidinyl)-1-piperidinyl]methanone], the inhibition at 0.1 µM amounted to 4%. For `COc1cc2c(cc1OC)N(C(=O)c1ccc(-c3ccccc3C(F)(F)F)c(C)c1)Cc1ccc(C(=O)N3CCC(=O)CC3)n1C2` [Example 14, 7,8-Dimethoxy-10-{[2-methyl-2′-(trifluoromethyl)-[1,1′-biphenyl]-4-yl]carbonyl}-[(10,11-dihydro-5H-pyrrolo[2,1-c][1,4]benzodiazepin-3-yl)carbonyl]-4-piperidinone], the “V1a % inhibition @ 100 nM” value is reported as −16%. For the compound `COc1cccc(-c2ccc(C(=O)N3Cc4ccc(C(=O)NCCCn5ccnc5)n4Cc4ccccc43)cc2OC)c1` [Example 133, 10-[(2,3′-Dimethoxy[1,1′-biphenyl]4-yl)carbonyl]-N-[3-(1H-imidazol-1-yl)propyl]-10,11-dihydro-5H-pyrrolo[2,1-c][1,4]benzodiazepine-3-carboxamide], the inhibition at 0.1 µM came to 20%.
